From patent publication US4073891A, “N^2 -Arylsulfonyl-L-argininamides and the pharmaceutically acceptable salts thereof” (Mitsubishi Chemical Industries Limited, priority 1974, dated 1978) come the findings set out here.

The structures appear in SMILES notation.

For one data set, the system named is mice. The data set is described as follows: acute toxicity (LD50), intraperitoneal administration. As to conditions: mice (male, 20 g). The class given is in vivo. An excerpt:
Representative LD50 values, for example, for N^2 -(5,6,7,8-tetrahydro-1-naphthylsulfonyl)-N-(2-methoxyethyl)glycine, N^2 -(7-methyl-2-naphthylsulfonyl)-N-butylglycine and N^2 -(6,7-dimethyl-1-naphthylsulfonyl)-N-(2-methoxyethyl)glycine are above 1,500 milligrams per kilogram, respectively.

Another data set addresses T1, thrombin (Bos taurus, UniProt P00735).
T1 construct: purchased Mochida Pharmaceutical Co., Ltd
The data set can be described thus: fibrinogen coagulation time. The class given is biochemical. As to conditions: bovine fibrinogen, thrombin 5 units/ml, borate saline buffer pH 7.4, 25° C; normal coagulation time 50-55 seconds. The method, then: The measurement of the fibrinogen coagulation time was conducted as follows:
Immediately after mixing, the reaction mixture was transferred from the ice bath to a bath maintained at 25° C. Coagulation times were taken as the period between the time of transference to the 25° C bath and the time of the first appearance of fibrin threads. […] The term "concentration required to prolong the coagulation time by a factor of two" is the concentration of an active ingredient required to prolong the normal coagulation time 50-55 seconds to 100-110 seconds.

With `CCCCNC(=O)[C@H](CCCNC(=N)N)NS(=O)(=O)c1cccc2c(N(C)C)cccc12` [N^2 -dansyl-N-butyl-L-argininamide, reference compound], the “acute toxicity LD50” value in the data set on mice stood at 75 milligrams per kilogram. Take `CCCCN(C)C(=O)[C@H](CCCNC(=N)N)NS(=O)(=O)c1cccc2c(N(C)C)cccc12` [N^2 -dansyl-N-methyl-N-butyl-L-argininamide, reference compound]: the “acute toxicity LD50” value with mice is 70 milligrams per kilogram.

Consider `CCCCN(CC(=O)O)C(=O)[C@H](CCCNC(=N)N)NS(=O)(=O)c1cccc2c1CCCC2` [Sample 1, N^2-(5,6,7,8-tetrahydro-1-naphthylsulfonyl)-L-arginyl-N-butylglycine], for which the “Concentration required to prolong the coagulation time by a factor of two” value (from here on “Concentration required”) at thrombin is 20 µM. For the compound `COCCN(CC(=O)O)C(=O)[C@H](CCCNC(=N)N)NS(=O)(=O)c1cccc2c1CCCC2` [Sample 3, N^2-(5,6,7,8-tetrahydro-1-naphthylsulfonyl)-L-arginyl-N-(2-methoxyethyl)glycine], the “acute toxicity LD50” value in the data set on mice is reported as “above 1,500 milligrams per kilogram”. The “Concentration required” value at thrombin was determined as 10 µM. As for `N=C(N)NCCC[C@H](NS(=O)(=O)c1ccc2c(c1)CCCC2)C(=O)N(CC(=O)O)Cc1ccccc1` [Sample 4, N^2-(5,6,7,8-tetrahydro-2-naphthylsulfonyl)-L-arginyl-N-benzylglycine], the “Concentration required” value at thrombin was 30 µM.

For `CCCCN(CC(=O)O)C(=O)[C@H](CCCNC(=N)N)NS(=O)(=O)c1ccc2ccc(C)cc2c1` [Sample 14, N^2-(7-methyl-2-naphthylsulfonyl)-L-arginyl-N-butylglycine], in the data set on mice, the “acute toxicity LD50” value was “above 1,500 milligrams per kilogram”. For the same compound, the “Concentration required” value on thrombin was found to be 0.3 µM. Consider `COCCN(CC(=O)O)C(=O)[C@H](CCCNC(=N)N)NS(=O)(=O)c1ccc2ccc(C)cc2c1` [Sample 15, N^2-(7-methyl-2-naphthylsulfonyl)-L-arginyl-N-(2-methoxyethyl)glycine], for which, on thrombin, the “Concentration required” value was 0.2 µM. On to `Cc1ccc2ccc(S(=O)(=O)N[C@@H](CCCNC(=N)N)C(=O)N(CC(=O)O)CC3CCCCC3)cc2c1` [Sample 17, N^2-(7-methyl-2-naphthylsulfonyl)-L-arginyl-N-cyclohexylmethylglycine], for which, on thrombin, the “Concentration required” value was 14 µM. As to `COCCN(CC(=O)O)C(=O)[C@H](CCCNC(=N)N)NS(=O)(=O)c1cccc2ccc(C)cc12` [Sample 22, N^2-(7-methyl-1-naphthylsulfonyl)-L-arginyl-N-(2-methoxyethyl)glycine], the “Concentration required” value on thrombin is 20 µM. As to `COCCN(CC(=O)O)C(=O)[C@H](CCCNC(=N)N)NS(=O)(=O)c1cccc2cc(C)c(C)cc12` [Sample 23, N^2-(6,7-dimethyl-1-naphthylsulfonyl)-L-arginyl-N-(2-methoxyethyl)glycine], in the data set on mice, the “acute toxicity LD50” value is “above 1,500 milligrams per kilogram”. Besides, the “Concentration required” value at thrombin amounted to 10 µM. For the compound `CCCCN(CC(=O)O)C(=O)[C@H](CCCNC(=N)N)NS(=O)(=O)c1cccc2c(N(C)C)cccc12` [Sample 24, N^2-(5-dimethylamino-1-naphthylsulfonyl)-L-arginyl-N-butylglycine], on thrombin, the “Concentration required” value turned out to be 4 µM.
